From PubChem BioAssay (NCI)
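Following 48 hours of exposure in 96-well plates, responses at five concentrations were used to interpolate endpoints linearly. Definition used: TGI = concentration required for complete inhibition of growth.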

Legend:
Assay in all cases: DTP human tumour cell line panel, 48 h
[1] = system: 786-0 renal
[2] = system: A498 renal
[3] = system: A549 NSCLC
[4] = system: ACHN renal
[5] = system: BT-549 breast
[6] = system: CAKI-1 renal
[7] = system: CCRF-CEM leukemia
[8] = system: COLO 205 colon
[9] = system: DU-145 prostate
[10] = system: EKVX NSCLC
[11] = system: HCC-2998 colon
[12] = system: HCT-116 colon
[13] = system: HCT-15 colon
[14] = system: HL-60(TB) leukemia
[15] = system: HOP-62 NSCLC
[16] = system: HOP-92 NSCLC
[17] = system: HS 578T breast
[18] = system: HT29 colon
[19] = system: IGROV1 ovarian
[20] = system: K-562 leukemia
[21] = system: KM12 colon
[22] = system: LOX IMVI melanoma
[23] = system: M14 melanoma
[24] = system: MALME-3M melanoma
[25] = system: MCF7 breast
[26] = system: MDA-MB-231 breast
[27] = system: MDA-MB-435
[28] = system: MDA-N
[29] = system: MOLT-4 leukemia
[30] = system: NCI-H226 lung
[31] = system: NCI-H23 lung
[32] = system: NCI-H460 lung
[33] = system: NCI-H522 lung
[34] = system: NCI/ADR-RES ovarian
[35] = system: OVCAR-3 ovarian
[36] = system: OVCAR-4 ovarian
[37] = system: OVCAR-5 ovarian
[38] = system: OVCAR-8 ovarian
[39] = system: PC-3 prostate
[40] = system: RPMI-8226 leukemia
[41] = system: RXF 393 renal
[42] = system: SF-268 CNS
[43] = system: SF-295 CNS
[44] = system: SF-539 CNS
[45] = system: SK-MEL-2 melanoma
[46] = system: SK-MEL-28 melanoma
[47] = system: SK-MEL-5 melanoma
[48] = system: SK-OV-3 ovarian
[49] = system: SN12C renal
[50] = system: SNB-19 CNS
[51] = system: SNB-75 CNS
[52] = system: SR leukemia
[53] = system: SW-620 colon
[54] = system: T-47D breast
[55] = system: U251 CNS
[56] = system: UACC-257 melanoma
[57] = system: UACC-62 melanoma
[58] = system: UO-31 renal

## CC1(CCc2ccccc2)CC1(Br)Br (stereo not drawn)
[1]
  TGI: 57.5 µM
[2]
  TGI: > 100 µM
[3]
  TGI: > 100 µM
[4]
  TGI: 61 µM
[5]
  TGI: > 100 µM
[6]
  TGI: > 100 µM
[7]
  TGI: 67.7 µM
[8]
  TGI: 51.7 µM
[9]
  TGI: > 100 µM
[10]
  TGI: 40 µM
[11]
  TGI: 76.2 µM
[12]
  TGI: > 100 µM
[13]
  TGI: > 100 µM
[14]
  TGI: 41.9 µM
[15]
  TGI: > 100 µM
[16]
  TGI: 60.2 µM
[17]
  TGI: > 100 µM
[18]
  TGI: > 100 µM
[19]
  TGI: > 100 µM
[20]
  TGI: 38.2 µM
[21]
  TGI: > 100 µM
[22]
  TGI: 37.4 µM
[23]
  TGI: > 100 µM
[24]
  TGI: 68.3 µM
[25]
  TGI: > 100 µM
[26]
  TGI: > 100 µM
[27]
  TGI: 60.1 µM
[28]
  TGI: > 100 µM
[29]
  TGI: 56 µM
[30]
  TGI: 77.1 µM
[31]
  TGI: > 100 µM
[32]
  TGI: > 100 µM
[33]
  TGI: 61.5 µM
[34]
  TGI: > 100 µM
[35]
  TGI: 39.9 µM
[36]
  TGI: > 100 µM
[37]
  TGI: > 100 µM
[38]
  TGI: 50.8 µM
[39]
  TGI: > 100 µM
[40]
  TGI: 44.8 µM
[41]
  TGI: 41.2 µM
[42]
  TGI: > 100 µM
[43]
  TGI: > 100 µM
[44]
  TGI: > 100 µM
[45]
  TGI: 36.1 µM
[46]
  TGI: > 100 µM
[47]
  TGI: 30.1 µM
[48]
  TGI: > 100 µM
[49]
  TGI: 38.1 µM
[50]
  TGI: > 100 µM
[51]
  TGI: > 100 µM
[52]
  TGI: 41.6 µM
[53]
  TGI: > 100 µM
[54]
  TGI: > 100 µM
[55]
  TGI: > 100 µM
[56]
  TGI: 83.6 µM
[57]
  TGI: > 100 µM
[58]
  TGI: > 100 µM
